Marks after values point to notes of the source that are not given here. Residues, ends and D or L forms follow the SMILES beside them.
Tests used:
[1] = tested on: white outbred rats; assay: Subacute toxicity, 90 days; assay type: in vivo; conditions: intramuscularly daily for 90 days, 1 μg/kg, 0.3 mg/kg, 3 mg/kg
Experimental: Experimental animals were exposed daily to a single administration of the drug intramuscularly for 90 days in doses 1 μg/kg, 0.3 mg/kg, 3 mg/kg in 0.5 ml of sodium chloride solution. Animals of the control group were administered with the same amount of sodium chloride.
Within the whole period of study the animals were under daily observation. Behaviour of the animals, their rations and water consumption, the state of hair integument and mucous membranes were registered. The animals were weighed weekly. Prior to and on the 30th, 60th, and 90th days of the drug administration the morphological composition and properties of the peripheral blood were examined. Upon the experiment completion biochemical and coagulologic indices of blood were investigated.

[2] = tested on: Drosophila melanogaster of EA strain; assay: Life span and ageing rate, EA strain; assay type: in vivo
Experimental: (§1) Drosophila melanogaster of EA strain served as a model for studying the influence of L-Ala-L-Glu-L-Asp-Gly tetrapeptide (SEQ ID NO: 1) on catalase activity, tissue chemoluminescence, and life span.
One-day old flies were placed in test tubes, 10 individuals of the same sex in each. Every 5 to 7 days they were transferred to a fresh medium, taking into account the number of deceased individuals. The average and maximal life spans were defined. The ageing rate was calculated by the parameters of Gomperz equation.
(§2) L-Ala-L-Glu-L-Asp-Gly tetrapeptide (SEQ ID NO: 1) was applied in the larvae of the 3rd age in dose 0.00001% of the culture medium weight, which constituted approximately 0.015 mg/100 ml. Catalase activity and the intensity of chemoluminescence were estimated in the homogenates of adult 7-day old flies by generally accepted methods. The experiment was conducted with a subsequent 5 repetition.
(§3) Regression and dispersal analyses served as the basic technique of statistic processing.

[3] = tested on: Drosophila melanogaster of HEM strain; assay: Life span and ageing rate, HEM strain; assay type: in vivo; conditions: for 90% (the age, which 90% of the individuals reach) / ALS (average life span) / MRDT (mortality-rate doubling time) / Me (median life span) / R · 10^−2 (parameter of Gomperz equation): 0.00001% of medium
From the text: L-Ala-L-Glu-L-Asp-Gly tetrapeptide (SEQ ID NO: 1) was applied in Drosophila melanogaster larvae of the 2nd age of HEM strain selected for a high ageing rate (20). HEM strain is characterised by the unique dynamics of embryonic mortality, which consists in an increased frequency of early embryonic lethal outcomes from 65% on the 1st day of egg-laying up to 95% on the 4th day, in a reduced average life span (29 days), and in a raised intensity of lipid peroxide oxidation.
L-Ala-L-Glu-L-Asp-Gly tetrapeptide (SEQ ID NO: 1) was added in proportion 0.00001% of the culture medium weight, which was an extremely low dose. The doses described in literature on the influence of various substances on Drosophila melanogaster usually ranged from 0.001 to 0.01%.

[4] = tested on: white outbred male mice; assay: Acute toxicity according to Kerber; assay type: in vivo
Experimental: The purpose of the study was to define tolerable toxic doses of the preparation, to estimate the stage and character of pathologic alterations in various organs and systems of the organism, and to identify the correlation between the toxic dose-related effect and the duration of the drug application.
The investigation was carried out on 66 white outbred male mice weighing 20 to 23 g, which were kept under standard regimen and fed upon standard rations in vivarium conditions. The animals were randomly divided into 6 equal groups of 11 mice in each. The animals were exposed to a single administration of the drug intramuscularly, 0.25 ml in doses 1 mg/kg, 2 mg/kg, 3 mg/kg, 4 mg/kg and 5 mg/kg (several thousand times exceeding the therapeutic dose recommended for clinical trial). Control animals were administered the same amount of sodium chloride.

[5] = tested on: catalase; assay: Catalase activity in homogenates of 7-day old flies of EA strain; assay type: in vivo, Drosophila melanogaster of EA strain
Experimental: as §1, §2, §3

[6] = tested on: patients suffering aspirin bronchial asthma; assay: Clinical application in patients suffering aspirin bronchial asthma; assay type: in vivo
[7] = single intramuscular administration, 1-5 mg/kg
[8] = 10 μg intramuscularly daily for 10 days

Question: How did the “Side effects, subacute toxicity” value [1] turn out when `C[C@H](N)C(=O)N[C@@H](CCC(=O)O)C(=O)N[C@@H](CC(=O)O)C(=O)NCC(=O)O` [L-Ala-L-Glu-L-Asp-Gly tetrapeptide, L-alanyl-L-glutamyl-L-aspartyl-glycine] (H-AEDG-OH) was run?
Answer: The value was “absence of side effects”.

Question: What about the ALS ([2]; females, Experiment 1) of the same compound?
Answer: Its ALS is 16.4 ± 1.68 days.

Question: What about the “G 10^2” value ([2]; females, Experiment 1) of the same compound?
Answer: The value was 3.6 ± 0.61* days^−1.

Question: And the LSmax ([2]; females, Experiment 1)?
Answer: The LSmax was 39 days.

Question: And the LnR0 ([2]; females, Experiment 1)?
Answer: Its LnR0 is -3.1 ± 0.21 day⁻¹.

Question: What about the ALS ([2]; females, Experiment 2) of the same compound?
Answer: Its ALS is 16.7 ± 0.70 days.

Question: What about the “G 10^2” value ([2]; females, Experiment 2) of the same compound?
Answer: The value was 4.2 ± 1.68 days^−1.

Question: What about the LSmax ([2]; females, Experiment 2) of the same compound?
Answer: Its LSmax is 41 days.

Question: And the “LnR0 (Gompertz parameter)” value ([2]; females, Experiment 2)?
Answer: Its value is -3.6 ± 0.41 day⁻¹.

Question: And the ALS ([2]; males, Experiment 1)?
Answer: Its ALS is 10.8 ± 1.09 days.

Question: And the “G 10^2” value ([2]; males, Experiment 1)?
Answer: Its value is 3.3 ± 2.25 days^−1.

Question: And the LSmax ([2]; males, Experiment 1)?
Answer: The LSmax was 39 days.

Question: What about the “LnR0 (Gompertz parameter)” value ([2]; males, Experiment 1) of the same compound?
Answer: Its value is -2.3 ± 0.26 day⁻¹.

Question: What about the ALS ([2]; males, Experiment 2) of the same compound?
Answer: The ALS was 17.4 ± 0.88 days.

Question: What about the “G 10^2” value ([2]; males, Experiment 2) of the same compound?
Answer: Its value is 4.7 ± 0.94* days^−1.

Question: What about the LSmax ([2]; males, Experiment 2) of the same compound?
Answer: Its LSmax is 45 days.

Question: And the “LnR0 (Gompertz parameter)” value ([2]; males, Experiment 2)?
Answer: Its value is -3.0 ± 0.28 day⁻¹.

Question: What about the “90% (the age, which 90% of the individuals reach)” value ([3]; females) of the same compound?
Answer: Its value is 76 days.

Question: And the “ALS (average life span)” value ([3]; females)?
Answer: Its value is 48 + days.

Question: What about the “MRDT (mortality-rate doubling time)” value ([3]; females) of the same compound?
Answer: The value was 3.9.

Question: And the “Me (median life span)” value ([3]; females)?
Answer: The value was 48.0 days.

Question: What about the “R · 10^−2 (parameter of Gomperz equation)” value ([3]; females) of the same compound?
Answer: Its value is 4.0 + days^−1.

Question: And the “90% (the age, which 90% of the individuals reach)” value ([3]; males)?
Answer: Its value is 62 days.

Question: What about the “ALS (average life span)” value ([3]; males) of the same compound?
Answer: The value was 42 + 1.3 days.

Question: And the “MRDT (mortality-rate doubling time)” value ([3]; males)?
Answer: The value was 3.8.

Question: And the “Me (median life span)” value ([3]; males)?
Answer: Its value is 38.0 days.

Question: And the “R · 10^−2 (parameter of Gomperz equation)” value ([3]; males)?
Answer: Its value is 4.5 + days^−1.

Question: And the “Increase of the average life span” value ([3]; versus control)?
Answer: The value was 26%.

Question: And the “Reduction of the population real ageing rate (Gomperz parameter)” value ([3]; versus control)?
Answer: Its value is 40%.

Question: And the Acute toxic reactions ([4]; doses several thousand times exceeding the therapeutic one)?
Answer: Its Acute toxic reactions is “does not induce acute toxic reactions”.

Question: What about the “Alterations in general state, behaviour, locomotor activity, hair and skin integument, physiological discharges” value [4, 7] of the same compound?
Answer: The value was “No alterations”.

Question: And the “Deaths within 72 hours and in 14 days” value [4, 7]?
Answer: Its value is “none of the animals in either of the groups died”.

Question: What about the “Specific activity of catalase” value ([5]; females) of the same compound?
Answer: Its value is 82.78 ± 2.957 μmole H2O2/mg of protein per min.

Question: What about the “Specific activity of catalase” value ([5]; males) of the same compound?
Answer: The value was 100.39 ± 3.807 μmole H2O2/mg of protein per min.

Question: And the “Clinical state by the end of the treatment” value [6, 8]?
Answer: Its value is “improvement in clinical state by the end of the treatment was observed in the overwhelming majority of patients”.

Question: What about the “External respiratory function (VBC, MVexhR, FEV1, TV/TLC) immediately after treatment” value [6, 8] of the same compound?
Answer: Its value is “did not reveal any essential alterations”.

Question: And the “Reaction to Berotek on the level of distal bronchi” value [6, 8]?
Answer: The value was “showed an improvement”.

Question: And the “Excretion of 6-sulfatoxymelatonin in urine” value ([6]; at night and in the daytime)?
Answer: The value was “increased”.
